In the data set the target is HBV. The note with it: ASO.

Where “and” joins values, the source holds several entries; their conditions need not be identical. Identical values can stand only once. HELM strings list units from the 5' end as sugar, base in round brackets, then linkage (d deoxyribose, r ribose, m 2'-O-methyl, p phosphodiester). Methylation of C is not given here. [moe] = 2'-O-(2-methoxyethyl) (MOE); [cEt] = constrained ethyl (cEt); [sp] = phosphorothioate linkage

“RNA1{[moe](A)[sp].[cEt](A)[sp].[cEt](G)[sp].d(C)[sp].d(G)[sp].d(A)[sp].d(A)[sp].d(G)[sp].d(T)[sp].d(G)[sp].d(C)[sp].d(A)[sp].d(C)[sp].[cEt](A)[sp].[cEt](C)[sp].[moe](G)}$$$$V2.0”: the target mRNA inhibition (HepG2, 0.0092593 µM) was found to be 28%; the target mRNA inhibition (HepG2, 0.0277778 µM) was 57%; the target mRNA inhibition (HepG2, 0.07 µM) was 80% and 85%; the target mRNA inhibition (HepG2, 0.0833333 µM) turned out to be 80%; the target mRNA inhibition (HepG2, 0.25 µM) came out at 89%.
“RNA1{[moe](C)[sp].[moe](C)[sp].d(G)[sp].d(C)[sp].d(A)[sp].d(G)[sp].d(T)[sp].d(A)[sp].d(T)[sp].d(G)[sp].d(G)[sp].[moe](A)[sp].[moe](T)[sp].[moe](C)[sp].[moe](G)[sp].[moe](G)}$$$$V2.0”: the target mRNA inhibition (HepG2, 0.07 µM) is 63% and 52%.
The same measure, in the same setting: the figure for “RNA1{[moe](C)[sp].[cEt](A)[sp].[cEt](A)[sp].d(A)[sp].d(T)[sp].d(G)[sp].d(G)[sp].d(C)[sp].d(A)[sp].d(C)[sp].d(T)[sp].d(A)[sp].d(G)[sp].[cEt](T)[sp].[cEt](A)[sp].[moe](A)}$$$$V2.0” is 55% and 64%; for “RNA1{[moe](A)[sp].[moe](G)[sp].[moe](G)[sp].[moe](A)[sp].d(G)[sp].d(T)[sp].d(T)[sp].d(C)[sp].d(C)[sp].d(G)[sp].d(C)[sp].d(A)[sp].d(G)[sp].[moe](T)[sp].[moe](A)[sp].[moe](T)[sp].[moe](G)}$$$$V2.0” it is 74% and 50%.
Regarding “RNA1{[moe](A)[sp].[cEt](A)[sp].[cEt](C)[sp].d(A)[sp].d(A)[sp].d(A)[sp].d(T)[sp].d(G)[sp].d(G)[sp].d(C)[sp].d(A)[sp].d(C)[sp].d(T)[sp].[cEt](A)[sp].[cEt](G)[sp].[moe](T)}$$$$V2.0”, the target mRNA inhibition (HepG2, 0.07 µM) is 78% and 76%.
As for “RNA1{[moe](G)[sp].[moe](A)[sp].[moe](G)[sp].d(G)[sp].d(T)[sp].d(G)[sp].d(A)[sp].d(A)[sp].d(G)[sp].d(C)[sp].d(G)[sp].d(A)[sp].[moe](A)[sp].[moe](G)[sp].[moe](T)[sp].[moe](G)}$$$$V2.0”, the target mRNA inhibition (HepG2, 0.07 µM) was 57% and 54%.
In the case of “RNA1{[moe](A)[sp].[moe](G)[sp].[moe](A)[sp].[moe](G)[sp].[moe](G)[sp].d(T)[sp].d(G)[sp].d(A)[sp].d(A)[sp].d(G)[sp].d(C)[sp].d(G)[sp].d(A)[sp].d(A)[sp].[moe](G)[sp].[moe](T)[sp].[moe](G)}$$$$V2.0”, under “HepG2, 0.07 µM”, the target mRNA inhibition was 64% and 55%.
As to “RNA1{[moe](G)[sp].[cEt](A)[sp].d(G)[sp].d(T)[sp].d(T)[sp].d(C)[sp].d(C)[sp].d(G)[sp].d(C)[sp].d(A)[sp].d(G)[sp].d(T)[sp].[cEt](A)[sp].[moe](T)[sp].[cEt](G)[sp].[moe](G)}$$$$V2.0”, the target mRNA inhibition (HepG2, 0.07 µM) was 75% and 68%.
In the case of “RNA1{[moe](C)[sp].[cEt](T)[sp].[cEt](G)[sp].d(A)[sp].d(A)[sp].d(C)[sp].d(A)[sp].d(A)[sp].d(A)[sp].d(T)[sp].d(G)[sp].d(G)[sp].d(C)[sp].[cEt](A)[sp].[cEt](C)[sp].[moe](T)}$$$$V2.0”, for the setting “HepG2, 0.07 µM”, the target mRNA inhibition is 69% and 58%.
For “RNA1{[moe](T)[sp].[moe](G)[sp].[moe](A)[sp].[cEt](G)[sp].d(G)[sp].d(C)[sp].d(A)[sp].d(T)[sp].d(A)[sp].d(G)[sp].d(C)[sp].d(A)[sp].d(G)[sp].[cEt](C)[sp].[moe](A)[sp].[moe](G)[sp].[moe](G)}$$$$V2.0”, the target mRNA inhibition (HepG2, 0.009375 µM) was 6%; the target mRNA inhibition (HepG2, 0.01875 µM) was determined as 31%; the target mRNA inhibition (HepG2, 0.0375 µM) came out at 42%; the target mRNA inhibition (HepG2, 0.075 µM) worked out at 58%; the target mRNA inhibition (HepG2, 0.15 µM) amounted to 66%; the target mRNA inhibition (HepG2, 0.3 µM) worked out at 82%.
“RNA1{[moe](T)[sp].[moe](T)[sp].[moe](A)[sp].d(T)[sp].d(G)[sp].d(C)[sp].d(C)[sp].d(T)[sp].d(A)[sp].d(C)[sp].d(A)[sp].d(G)[sp].[moe](C)[sp].[moe](C)[sp].[moe](T)[sp].[moe](C)}$$$$V2.0”: the target mRNA inhibition (HepG2, 0.07 µM) is 51% and 41%.
Still for that read-out and setting: under “RNA1{[moe](A)[sp].[moe](G)[sp].[moe](G)[sp].[moe](T)[sp].[moe](G)[sp].d(A)[sp].d(A)[sp].d(G)[sp].d(C)[sp].d(G)[sp].d(A)[sp].d(A)[sp].d(G)[sp].d(T)[sp].[moe](G)[sp].[moe](C)[sp].[moe](A)}$$$$V2.0” stands 73% and 56%.
For the substance “RNA1{[moe](C)[sp].[moe](T)[sp].d(A)[sp].d(G)[sp].d(T)[sp].d(A)[sp].d(A)[sp].d(A)[sp].d(C)[sp].d(T)[sp].d(G)[sp].[moe](A)[sp].[moe](G)[sp].[moe](C)[sp].[moe](C)[sp].[moe](A)}$$$$V2.0”, the target mRNA inhibition (HepG2, 0.07 µM) was 52% and 34%.
Turning to “RNA1{[moe](G)[sp].[moe](A)[sp].[moe](T)[sp].[moe](G)[sp].[moe](A)[sp].d(G)[sp].d(G)[sp].d(C)[sp].d(A)[sp].d(T)[sp].d(A)[sp].d(G)[sp].d(C)[sp].d(A)[sp].[moe](G)[sp].[moe](C)}$$$$V2.0”, the target mRNA inhibition (HepG2, 0.07 µM) was 45% and 31%.
As to “RNA1{[moe](G)[sp].[cEt](T)[sp].d(T)[sp].d(C)[sp].d(C)[sp].d(G)[sp].d(C)[sp].d(A)[sp].d(G)[sp].d(T)[sp].d(A)[sp].d(T)[sp].[cEt](G)[sp].[moe](G)[sp].[cEt](A)[sp].[moe](T)}$$$$V2.0”, the target mRNA inhibition (HepG2, 0.07 µM) is 76% and 53%.
Regarding “RNA1{[moe](A)[sp].[moe](G)[sp].[moe](C)[sp].[moe](G)[sp].d(A)[sp].d(A)[sp].d(G)[sp].d(T)[sp].d(G)[sp].d(C)[sp].d(A)[sp].d(C)[sp].d(A)[sp].[moe](C)[sp].[moe](G)[sp].[moe](G)}$$$$V2.0”, the target mRNA inhibition was 25% (HepG2, 0.0092593 µM); 37% (HepG2, 0.0277778 µM); 78% and 73% (HepG2, 0.07 µM); 73% (HepG2, 0.0833333 µM); 87% (HepG2, 0.25 µM).
In the case of “RNA1{[moe](A)[sp].[moe](C)[sp].d(G)[sp].d(T)[sp].d(G)[sp].d(C)[sp].d(A)[sp].d(G)[sp].d(A)[sp].d(G)[sp].d(G)[sp].[moe](T)[sp].[moe](G)[sp].[moe](A)[sp].[moe](A)[sp].[moe](G)}$$$$V2.0”, under “HepG2, 0.07 µM”, the target mRNA inhibition is 57% and 44%.
With “RNA1{[moe](T)[sp].[moe](T)[sp].[moe](C)[sp].d(C)[sp].d(G)[sp].d(C)[sp].d(A)[sp].d(G)[sp].d(T)[sp].d(A)[sp].d(T)[sp].d(G)[sp].[moe](G)[sp].[moe](A)[sp].[moe](T)[sp].[moe](C)[sp].[moe](G)}$$$$V2.0”, the target mRNA inhibition (HepG2, 0.07 µM) was 73% and 60%.
Take “RNA1{[moe](T)[sp].[moe](C)[sp].[moe](C)[sp].d(A)[sp].d(C)[sp].d(C)[sp].d(A)[sp].d(C)[sp].d(G)[sp].d(A)[sp].d(G)[sp].d(T)[sp].d(C)[sp].[cEt](T)[sp].[cEt](A)[sp].[cEt](G)}$$$$V2.0”: the target mRNA inhibition (HepG2, 0.07 µM) was 42% and 67%.
For the substance “RNA1{[moe](A)[sp].[cEt](G)[sp].[cEt](G)[sp].d(C)[sp].d(A)[sp].d(C)[sp].d(A)[sp].d(G)[sp].d(C)[sp].d(T)[sp].d(T)[sp].d(G)[sp].d(G)[sp].[cEt](A)[sp].[cEt](G)[sp].[moe](G)}$$$$V2.0”, where the note is “HepG2, 0.07 µM”, the target mRNA inhibition was 12% and 37%.
Regarding “RNA1{[moe](A)[sp].[moe](C)[sp].d(C)[sp].d(A)[sp].d(C)[sp].d(T)[sp].d(G)[sp].d(A)[sp].d(A)[sp].d(C)[sp].d(A)[sp].[moe](A)[sp].[moe](A)[sp].[moe](T)[sp].[moe](G)[sp].[moe](G)}$$$$V2.0”, the target mRNA inhibition (HepG2, 0.07 µM) was 43% and 44%.
As for “RNA1{[cEt](T)[sp].d(T)[sp].[cEt](T)[sp].d(A)[sp].[cEt](T)[sp].d(G)[sp].d(C)[sp].d(C)[sp].d(T)[sp].d(A)[sp].d(C)[sp].d(A)[sp].d(G)[sp].d(C)[sp].[moe](C)[sp].[moe](T)}$$$$V2.0”, the target mRNA inhibition was 12% (HepG2, 0.009375 µM); 14% (HepG2, 0.01875 µM); 32% (HepG2, 0.0375 µM); 47% (HepG2, 0.075 µM); 62% (HepG2, 0.15 µM); 77% (HepG2, 0.3 µM).
On to “RNA1{[moe](G)[sp].[moe](A)[sp].[moe](G)[sp].d(G)[sp].d(C)[sp].d(A)[sp].d(T)[sp].d(A)[sp].d(G)[sp].d(C)[sp].d(A)[sp].d(G)[sp].[moe](C)[sp].[moe](A)[sp].[moe](G)[sp].[moe](G)[sp].[moe](A)}$$$$V2.0”, for which, under “HepG2, 0.07 µM”, the target mRNA inhibition was 66% and 57%.
“RNA1{[moe](G)[sp].[moe](A)[sp].[moe](A)[sp].d(G)[sp].d(C)[sp].d(G)[sp].d(A)[sp].d(A)[sp].d(G)[sp].d(T)[sp].d(G)[sp].d(C)[sp].[moe](A)[sp].[moe](C)[sp].[moe](A)[sp].[moe](C)}$$$$V2.0”: the target mRNA inhibition (HepG2, 0.07 µM) is 52% and 50%.
On the same count and under the same terms, the figure for “RNA1{[moe](A)[sp].[cEt](G)[sp].[cEt](T)[sp].d(C)[sp].d(C)[sp].d(A)[sp].d(C)[sp].d(C)[sp].d(A)[sp].d(C)[sp].d(G)[sp].d(A)[sp].d(G)[sp].[cEt](T)[sp].[cEt](C)[sp].[moe](T)}$$$$V2.0” is 62% and 45%; for “RNA1{[moe](G)[sp].[cEt](A)[sp].[cEt](A)[sp].d(C)[sp].d(T)[sp].d(G)[sp].d(G)[sp].d(A)[sp].d(G)[sp].d(C)[sp].d(C)[sp].d(A)[sp].d(C)[sp].[cEt](C)[sp].[cEt](A)[sp].[moe](G)}$$$$V2.0” it is 65% and 51%.
With “RNA1{[moe](A)[sp].[moe](G)[sp].[moe](T)[sp].d(T)[sp].d(C)[sp].d(C)[sp].d(G)[sp].d(C)[sp].d(A)[sp].d(G)[sp].d(T)[sp].d(A)[sp].d(T)[sp].[cEt](G)[sp].[cEt](G)[sp].[cEt](A)}$$$$V2.0”, the target mRNA inhibition (HepG2, 0.07 µM) was 58% and 69%.
In the case of “RNA1{[moe](C)[sp].[moe](G)[sp].[moe](T)[sp].[moe](G)[sp].d(C)[sp].d(A)[sp].d(G)[sp].d(A)[sp].d(G)[sp].d(G)[sp].d(T)[sp].d(G)[sp].d(A)[sp].[moe](A)[sp].[moe](G)[sp].[moe](C)}$$$$V2.0”, the target mRNA inhibition (HepG2, 0.07 µM) was 46% and 44%.

The values are drawn from the OligoGym collection.
